# Entries after “also recorded” stand apart in the source; their conditions may differ.
# How the values were obtained:
# RBC = test: membrane potential ratio (MPR) test: agent added to K+-free, EtOH-containing test buffer versus reference buffer; type: cell-based, human; details: for EtOH effect (hSK4 opening / hyperpolarization): hSK4 blockers added to the test buffer
# Text: It is essential to understand these differences so that the underlying pathophysiology of these disorders is better understood leading to better diagnostic markers and drug targets. […] Membrane potential ratio (MPR™) is the ratio between the membrane potential in the test buffer and that in the reference buffer. The reference buffer contains NaCl, CaCl2, glucose and Hepes whereas the test buffer contains ethyl alcohol (EtOH) in addition to these compounds. […] The role of the absence of K^+ ions in the buffer on membrane potential and the addition of EtOH needs to be understood in order to explain their effects.
# The assay uses a reference buffer or regular buffer and a test buffer. The “reference buffer” or “regular buffer” contains only Na^+, Ca^2+, and HEPES without any other reagents. The “test buffer” containing no potassium (K^+-free buffer) is a HEPES buffer without potassium (4 mM NaHCO3, 5 mM HEPES, 134 mM NaCl, 2.3 mM CaCl2, and 5 mM glucose) and with a K^+ channel altering agent, at a pH of 6.8 (range of 6.6 to 7.0). The test buffer may also contain 30 μM ethacrynic acid dissolved in EtOH as solvent.
# In order to verify the CAK channel is involved in the membrane potential of the RBC used for the membrane potential ratios (MPR™) tests, the CAK channel blockers, quinine and clotrimazole were added to the test buffer and the membrane potential ratios (MPR™) was determined. The membrane potential ratios (MPR™) values are shown in box plots. […] Similarly boxes 3, 4 and 5 show the results for clotrimazole (CLTX). Box 3 represents no CLTX, while box 4 for 2.5 micro molar CLTX and box 5 for 5 micro molar concentrations in the test buffer.
# Blood samples from a patient were suspended in a reference buffer (reference buffer sample) as well as in a test buffer (test buffer sample) with 3,3′-dihexyloxacarbocyanine iodide (DiOC6) dye, incubated, spun, drained and the […] resuspended in their respective buffers without the dye. The resuspended buffer samples were then distributed in three separate 96 well plates and tested in a Plate Reader for fluorescence intensity. The Plate Reader recorded a data matrix of each of the 96 well plates and the data matrix was transferred to a Template to calculate the ratio between the test buffer sample and the corresponding reference buffer sample. The resulting ratios were calculated to determine the mean value, the standard deviation and the coefficient of variation. This procedure was repeated two more times and the resulting mean value, standard deviation and the coefficient of variation calculated in the same manner. The Membrane Potential Ratio (MPR™) obtained from the mean values was 0.781 (with a standard deviation of 0.014 and coefficient of variation of 1.76). Based on the MPR™ value of 0.781, the patient was diagnosed to have ADHD (with a greater than 97% probability).
# diacylglycerol kinase = details: human red blood cell membranes; de Courcelles et al. 1985; cited from earlier work
# [1] = tested on: calmodulin-dependent protein kinase II (CaM-kinase II); details: Ishida et al. 1995; cited from earlier work
# [2] = CAK channel blockers added to the test buffer (quinine 1 mM; CLTX 2.5 and 5 micro molar), FIG. 2
compound,measurement,setting,value
"Nc1ncnc2c1nc(Sc1ccc(Cl)cc1)n2[C@@H]1O[C@@H]2COP(=O)(O)O[C@H]2[C@H]1O [8-CPT, 8-CPT-cAMP]",effect on membrane potential ratio (MPR) / membrane potentials,"RBC; 50 μM in the test buffer, FIG. 3",did not have any effect; also recorded: no effect
"Cc1nc2sccn2c(=O)c1CCN1CCC(=C(c2ccccc2)c2ccc(F)cc2)CC1 [ALX, 6-[2-[4-[(4-fluorophenyl)phenylmethylene]-1-piperidinyl]ethyl]-7-methyl-5H-thiazolo[3,2-a]pyrimidin-5-one]",inhibition of diacylglycerol kinase,diacylglycerol kinase,found to inhibit diacylglycerol kinase
same,effect on membrane potential,"RBC; three concentrations 2.5 μl, 5 μl and 7.5 μl, FIG. 7",depolarizes the membrane potential
"CCCCCCCCCCCCCC(=O)O[C@@H]1[C@@H](C)[C@@]2(O)[C@@H](C=C(CO)C[C@]3(O)C(=O)C(C)=C[C@@H]23)[C@@H]2C(C)(C)[C@]12OC(C)=O [PMA, phorbol 12-myristate 13-acetate]",effect on membrane potential ratio (MPR) / cell polarization,"RBC; 2.5 μM in the test buffer versus without PMA, FIG. 4",depolarizes the cells very effectively
"CN[C@@H]1C[C@H]2O[C@@](C)([C@@H]1OC)n1c3ccccc3c3c4c(c5c6ccccc6n2c5c31)C(=O)NC4 [Staurosporine, staurosporine]",effect on membrane potentials,"RBC; three concentrations (250 nM, 500 nM and 750 nM) in the test buffer, FIG. 5",hyperpolarizes the membrane potentials very effectively
same,effect on membrane potentials,"RBC; three concentrations (250 nM, 500 nM and 750 nM) in the test buffer, FIG. 5, listed as staurosporine",hyperpolarizes the membrane potential in a concentration dependent manner
Clc1ccccc1C(c1ccccc1)(c1ccccc1)n1ccnc1 [clotrimazole],effect on membrane potentials,RBC; [2],depolarized the membrane potentials robustly
same,EtOH effect (hSK4 opening / hyperpolarization),RBC; FIG. 2,blocked
C=C[C@H]1C[N@@]2CC[C@H]1C[C@H]2[C@H](O)c1ccnc2ccc(OC)cc12 [quinine],membrane potential ratio (MPR) values,"RBC; 1 mM quinine in the test buffer compared to test buffer without quinine, FIG. 2",increased
same,effect on membrane potentials,RBC; [2],depolarized the membrane potentials robustly
same,EtOH effect (hSK4 opening / hyperpolarization),RBC; FIG. 2,blocked
autocamtide-2-related inhibitory peptide [AIP],effect on membrane potential,"RBC; 5 μM concentration, FIG. 6",depolarizes the membrane potential robustly
same,inhibition of CaM-kinase II,[1],highly specific and potent inhibitor
